The record followed here is patent US9393221B2, “Methods and compounds for reducing intracellular lipid storage” (THE GENERAL HOSPITAL CORPORATION, priority 2011, dated 2016).

Counter-ions that a name gives are not always drawn.

For the first test, the system named is ATGL-KO iPSCs. The test can be described thus: High throughput iPSC chemical screening, Oil Red O (ORO) lipid accumulation. On Z-score: test concentration or dose not given here.
Conditions: not given
It counts as cell-based, mouse.
Turning to `C[C@]12CC[C@@H](O)C[C@H]1CC[C@@H]1[C@@H]2CC[C@]2(C)C(=O)CC[C@@H]12` [3-alpha-Hydroxy-5-beta-androstan-17-one], the Z-score is given as −0.187.

The test is the same for the next values; noted with them: glycolytic switch compounds.
Take `CC(COc1ccccc1)N(CCCl)Cc1ccccc1` (stereo not drawn) [Phenoxybenzamine hydrochloride]: the “Rank in normalized ORO score from screen” value was found to be 702.

Regarding `CSc1ccc2c(c1)C(N1CCN(C)CC1)Cc1ccccc1S2.O=C(O)/C=C\C(=O)O` (stereo not drawn) [Methiothepin maleate], the “Rank in normalized ORO score from screen” value was determined as 658.

The test is the same for the next values; noted with them: normalized ORO level vs DMSO-treated cells; compound present during 7 days differentiation, 96-well; negative = decrease in lipid accumulation.
The molecule `CC(COc1ccccc1)N(CCCl)Cc1ccccc1` (stereo not drawn) [Phenoxybenzamine hydrochloride] yielded a Z-score of 0.2031.

Turning to `COP(=O)(OC)C(O)C(Cl)(Cl)Cl` (stereo not drawn) [Trichlorfon], the Z-score was determined as 0.2655.

Take `C1COC(NC(C2CC2)C2CC2)=N1` [Rilmenidine hemifumarate]: the Z-score was −1.0936.

Consider `CC(C)N(CCC(C(N)=O)(c1ccccc1)c1ccccn1)C(C)C` (stereo not drawn) [Disopyramide], for which the Z-score was −1.1535.

`C[C@@H]1CCC[C@H](C)N1NC(=O)c1ccc(Cl)c(S(N)(=O)=O)c1` [Clopamide]: the Z-score is reported as −0.9945.

Regarding `CCOC(=O)Oc1c(OC)cc(C(=O)O[C@@H]2C[C@@H]3CN4CCc5c([nH]c6cc(OC)ccc56)[C@H]4C[C@@H]3[C@H](C(=O)OC)[C@H]2OC)cc1OC` [Syrosingopine], the Z-score worked out at 0.3519.

On to `N[C@@H](Cc1cc(I)c(Oc2cc(I)c(O)c(I)c2)c(I)c1)C(=O)O` [Thyroxine (L)], for which the Z-score was 0.1955.

`CC(C)NC[C@@H](O)c1ccc(O)c(O)c1.O=C(O)C(O)C(O)C(=O)O` [(+)-Isoproterenol (+)-bitartrate salt]: the Z-score was −0.728.

In the case of `Cc1noc(NS(=O)(=O)c2ccc(N)cc2)c1C` [Sulfisoxazole], the Z-score is −0.0512.

Consider `C[C@]12C[C@H]3S[C@H]3C[C@@H]1CC[C@@H]1[C@@H]2CC[C@]2(C)[C@@H](O)CC[C@@H]12` [Epitiostanol], for which the Z-score was −1.7564.

`C[C@](N)(Cc1ccc(O)c(O)c1)C(=O)O` [Methyldopa (L,−)]: the Z-score is on record as 0.02395.

Regarding `Cc1[nH]ccc2c1[nH]c1cc(=O)ccc12` [Harmol hydrochloride monohydrate], the Z-score is listed as −0.0757.

`Clc1ccc2c(c1)C(N1CCNCC1)=Nc1ccccc1O2` [Amoxapine]: the Z-score is recorded as −0.8161.

As to `O=C(O)c1cn(C2CC2)c2cc(N3CCNCC3)c(F)cc2c1=O` [Ciprofloxacin hydrochloride], the Z-score was −1.3212.

Regarding `CCCCNc1c(C(=O)OCC)c(C)nc2c1cnn2CC` [Tracazolate hydrochloride], the Z-score is recorded as −1.6368.

In the case of `CC(=O)OCC(=O)[C@@]1(O)CC[C@H]2[C@@H]3CCC4=CC(=O)CC[C@]4(C)[C@@]3(F)[C@@H](O)C[C@@]21C` [Fludrocortisone acetate], the Z-score is recorded as −0.9911.

Consider `Cc1cccc(Nc2ccccc2C(=O)O)c1C` [Mefenamic acid], for which the Z-score is on record as −0.2407.

Consider `Cc1cnc(C(=O)NCCc2ccc(S(=O)(=O)NC(=O)NC3CCCCC3)cc2)cn1` [Glipizide], for which the Z-score is recorded as −0.2981.

`CCCNC(C)C(=O)Nc1c(C)csc1C(=O)OC` (stereo not drawn) [Articaine hydrochloride] yielded a Z-score of 0.836.

As for `C[C@H](O)C(=O)Nc1c(I)c(C(=O)NC(CO)CO)c(I)c(C(=O)NC(CO)CO)c1I` [Iopamidol], the Z-score is given as 1.108.

The molecule (S)-(−)-Atenolol showed a Z-score of 0.7787.

Regarding `C[C@]12CC[C@@H]3c4ccc(O)cc4CC[C@H]3[C@@H]1CC[C@@H]2O` [Estradiol-17 beta], the Z-score is −0.9541.

For `CC1=CC(=O)C2=C(C)C[C@H](O)[C@@H]3[C@H](OC(=O)[C@H]3C)[C@H]12` [Austricine], the Z-score was −0.5795.

Consider `c1ccc(CNc2ncnc3[nH]cnc23)cc1` [Aminopurine, 6-benzyl], for which the Z-score was −0.7385.

Regarding `C[C@]12CCC(=O)C=C1CC[C@@H]1[C@@H]2[C@@H](O)C[C@@]2(C)[C@H]1CC[C@]2(O)C(=O)CO` [Hydrocortisone base], the Z-score is reported as −0.2176.

`COc1cc(-c2ccc(N=Nc3ccc4c(S(=O)(=O)[O-])cc(S(=O)(=O)[O-])c(N)c4c3O)c(OC)c2)ccc1N=Nc1ccc2c(S(=O)(=O)[O-])cc(S(=O)(=O)[O-])c(N)c2c1O.[Na+].[Na+].[Na+].[Na+]` [Chicago sky blue 6B]: the Z-score was determined as 0.6958.

`CNC(=C[N+](=O)[O-])NCCSCc1ccc(CN(C)C)o1` [Ranitidine hydrochloride]: the Z-score is −0.5642.

Regarding `COc1ccc2cc([C@H](C)C(=O)O)ccc2c1` [Naproxen], the Z-score is −0.3678.

For the molecule `O=C(CCCN1CCN(c2ccccn2)CC1)c1ccc(F)cc1` [Azaperone], the Z-score is 1.543.

Turning to `CO[C@H]1C[C@H](O[C@H]2[C@H](C)[C@@H](O[C@@H]3O[C@H](C)C[C@H](N(C)C)[C@H]3OC(C)=O)[C@@H](C)C[C@@]3(CO3)C(=O)[C@H](C)[C@@H](OC(C)=O)[C@@H](C)[C@@H](C)OC(=O)[C@@H]2C)O[C@@H](C)[C@@H]1OC(C)=O` [Troleandomycin], the Z-score is recorded as −0.5429.

Regarding `CCC1(c2cccc(O)c2)CCCCN(C)C1` (stereo not drawn) [Meptazinol hydrochloride], the Z-score is given as −1.0631.

On to `NNC(=O)c1ccncc1` [Isoniazid], for which the Z-score is listed as 0.9473.

Consider `NC(=O)N/N=C/c1ccc([N+](=O)[O-])o1` [Nitrofural], for which the Z-score is reported as −0.866.

Consider `COc1cc2c(cc1OC)-c1cc3ccc(OC)c(OC)c3c[n+]1CC2` [Palmatine chloride], for which the Z-score is 6.905.

The molecule `CC[C@@H](CO)NC(=O)[C@@H]1C=C2c3cccc4[nH]cc(c34)C[C@H]2N(C)C1` [Methylergometrine maleate] registered a Z-score of 0.02492.

Consider `C#C[C@]1(O)CC[C@H]2[C@@H]3CCC4=CCCC[C@@H]4[C@H]3CC[C@@]21C` [Lynestrenol], for which the Z-score is on record as −1.3181.

For the molecule `NCc1ccc(S(N)(=O)=O)cc1` [Mafenide hydrochloride], the Z-score was found to be 0.8468.

For the molecule `Cc1cn([C@H]2C[C@H](N=[N+]=[N-])[C@@H](CO)O2)c(=O)[nH]c1=O` [Zidovudine, AZT], the Z-score was −0.4063.

`CC1(C)S[C@@H]2[C@H](NC(=O)C3(N)CCCCC3)C(=O)N2[C@H]1C(=O)O` [Cyclacillin] returned a Z-score of 2.402.

For `O=C(O)CCCc1ccc(N(CCCl)CCCl)cc1` [Chlorambucil], the Z-score is given as −0.8818.

Turning to `CCn1cc(C(=O)O)c(=O)c2cc3c(cc21)OCO3` [Oxolinic acid], the Z-score is −1.0488.

`Nc1nc(O)c2ncn(COC(CO)CO)c2n1` [Ganciclovir]: the Z-score is listed as −0.9945.

In turn, `COc1c2occc2cc2ccc(=O)oc12` [Methoxy-8-psoralen] came in with a Z-score of 1.942.

For the molecule `CC(=O)CC(c1ccc([N+](=O)[O-])cc1)c1c(O)c2ccccc2oc1=O` (stereo not drawn) [Acenocoumarol], the Z-score is reported as −1.4804.

`CN1Cc2c(ccc3c2OCO3)C2C(O)Cc3cc4c(cc3C21)OCO4` (stereo not drawn) [Chelidonine (+)] came in with a Z-score of 16.9912.

`Cc1c(N(C)CS(=O)(=O)[O-])c(=O)n(-c2ccccc2)n1C.[Na+]` [Dipyrone] displayed a Z-score of 1.061.

`CC[C@H](C)C(=O)O[C@H]1C[C@@H](C)C=C2C=C[C@H](C)[C@H](CC[C@@H]3C[C@@H](O)CC(=O)O3)[C@H]21` [Lovastatin] showed a Z-score of 6.935.

In turn, `CC[N+](C)(CC)CCC[n+]1c(-c2ccccc2)c2cc(N)ccc2c2ccc(N)cc21.[I-].[I-]` [Propidium iodide] registered a Z-score of 4.014.

For the molecule `CN(C)CCOC(c1ccccc1)c1ccccc1.Cn1c(=O)c2[nH]c(Cl)nc2n(C)c1=O` [Dimenhydrinate], the Z-score is −0.7776.

For the molecule `OC(c1ccccc1)(c1ccccc1)C1CCNCC1` [Azacyclonol], the Z-score is reported as −1.0159.

`Cc1cc2cc3c(C)cc(=O)oc3c(C)c2o1` [Trioxsalen] returned a Z-score of 1.359.

Molecule `Cn1c(=O)c2[nH]cnc2n(C)c1=O.O` [Theophylline monohydrate] registered a Z-score of 0.7001.

In the case of `CSc1ccc2c(c1)C(N1CCN(C)CC1)Cc1ccccc1S2.O=C(O)/C=C\C(=O)O` (stereo not drawn) [Methiothepin maleate], the Z-score stood at 0.08061.

Turning to `CN(C)CCCC1(c2ccc(F)cc2)OCc2cc(C#N)ccc21` (stereo not drawn) [Citalopram Hydrobromide], the Z-score was 0.03052.

In the case of `CC(C)(CO)[C@@H](O)C(=O)NCCC(=O)O` [Pantothenic acid calcium salt monohydrate], the Z-score is −1.5008.

Ketanserin tartrate hydrate showed a Z-score of 1.256.

With `COc1cc2nc(N3CCN(C(=O)C4COc5ccccc5O4)CC3)nc(N)c2cc1OC` (stereo not drawn) [Doxazosin mesylate], the Z-score was −1.0121.

Molecule `C[C@@H]1C/C=C/C=C/C=C/C=C/[C@H](O[C@@H]2O[C@H](C)[C@@H](O)[C@H](N)[C@@H]2O)C[C@@H]2O[C@](O)(C[C@@H](O)C[C@H]3O[C@@H]3/C=C/C(=O)O1)C[C@H](O)[C@H]2C(=O)O` [Natamycin] came in with a Z-score of 0.06039.

On to `CN1CCN(CCCN2c3ccccc3Sc3ccc(Cl)cc32)CC1` [Prochlorperazine dimaleate], for which the Z-score was 1.82.

With `C[C@]12C=CC(=O)C=C1CC[C@H]1[C@@H]3C[C@@H](O)[C@](O)(C(=O)CO)[C@@]3(C)C[C@H](O)[C@@]12F` [Triamcinolone], the Z-score is listed as −1.1722.

Take `CN(C)C(=O)C(CCN1CCC(O)(c2ccc(Cl)cc2)CC1)(c1ccccc1)c1ccccc1` [Loperamide hydrochloride]: the Z-score is −0.1814.

For `CC(C)(C)C(=O)OCOC(=O)[C@@H]1N2C(=O)[C@@H](NC(=O)[C@H](N)c3ccccc3)[C@H]2SC1(C)C` [Pivampicillin], the Z-score is on record as −1.1929.

In the case of `CN(C)CCCOc1nn(Cc2ccccc2)c2ccccc12` [Benzydamine hydrochloride], the Z-score is recorded as −0.3467.

Turning to `C=C[C@]12CN(C)[C@@H]3[C@H]4CO[C@H](C[C@H]41)[C@]1(C(=O)Nc4ccccc41)[C@@H]32` [Gelsemine], the Z-score is on record as −0.4693.

On to `Nc1ccc(S(=O)(=O)Nc2ccccn2)cc1` [Sulfapyridine], for which the Z-score was determined as 0.5256.

Turning to `C[C@H]1C[C@H]2[C@@H]3CCC4=CC(=O)C=C[C@]4(C)[C@@]3(F)[C@@H](O)C[C@]2(C)[C@@]1(O)C(=O)CO` [Betamethasone], the Z-score is recorded as −0.1891.
